We go through nine molecules from patent publication US9624491B2, “Methods and compositions for the detection and treatment of cancer involving miRNAs and miRNA inhibitors and targets” (Memorial Sloan Kettering Cancer Center, priority 2010, dated 2017).

One series relates to FL5-12 lymphocytes. The experiment in a line: IL3 depletion competition assay for cytokine-independent survival of FL5-12 lymphocytes. The series is classed as cell-based, murine. As to conditions: for IL-3 independence of FL5-12 cells: retest of individual miRNAs from secondary library screen. Here is the method:
An established in vitro assay of hematopoietic transformation (Plas, Talapatra, Edinger, Rathmell, & Thompson, 2001) was used to identify the key oncogenic activities within the 17˜92 cluster and its paralogues. All miRNAs representing families of unique seed sequences, specifically miR-17, miR-18a, miR-19b-1 (miR-19), miR-20a, miR-106a, miR-106b and miR-25 were tested (FIG. 1a). The assay is based on the IL3 dependence of FL5-12 lymphocytes, which undergo apoptosis when removed from IL3. In competition experiments, FL5-12 cells were partially transduced with GFP plus individual miRNAs or empty vector and these mixed populations were monitored by fluorescence-activated cell sorting (FACS) for changes in their relative proportions (FIG. 1b).
FL5-12 murine lymphocytes, IL3 depletion studies and viral transductions were as described (Mavrakis, et al., 2008) (Plas, Talapatra, Edinger, Rathmell, & Thompson, 2001). Cell cycle and cell death assays based on uptake of DNA staining dye (LDS751) using Cell cycle and Viacount assays from Guava Technologies were performed as reported (Mavrakis, et al., 2008). The retroviral vectors are based on murine stem cell virus (MSCV) and include the miRNA expression vectors encoding miRs 17, 18a, 19b-1 (miR-19), 106a, 106b, 25 (He, et al., 2005), the vectors encoding Notch-ICN (a gift from W. Pear) (Pear, et al., 1996) and Bcl2 (Wendel, et al., 2004), the individual shRNA vectors (FIG. 17) and the library vector (MRP) (FIGS. 18a and b). miRNA inhibitor oligonucleotides (antagomirs) MZIP19a-PA-1, MZIP19b-PA-1, and scrambled control (MZIP000-PA-1) were from System Biosciences.
The primary screen is based on c-MYC-induced apoptosis in MEFs (Evan, et al., 1992). MEFs were transduced with c-MYC and the miRNA library and cultured in puromycin to select for homogeneous c-MYC expression; apoptosis was triggered by diluting serum from 10% to 0.1%. Surviving cells remained adherent and were collected for DNA isolation, PCR amplification of the integrated miRNA library constructs, sub-cloning into pGEM-T vector, bacterial transformation, and sequence identification of ˜100 colonies. A secondary library was constructed by sub-cloning all miRNAs from the primary screen into an MSCV construct. The secondary screen is based on the IL-3 dependence of FL5-12 lymphocytes in vitro (Mavrakis, et al., 2010), (Plas, Talapatra, Edinger, Rathmell, & Thompson, 2001). FL5-12 cells were partially transduced with the pooled, GFP-tagged library and selected by IL-3 depletion. miRNAs were identified as above. Individual miRNAs were subsequently validated in the same FL5-12 assay and in vivo.

For series [1], the system named is T-ALL1 cells. The experiment in a line: Viability of T-ALL1 cells transduced with antagomirs. The series is classed as cell-based, human. On the procedure: (§1) Given the pleiotropic and partially overlapping pattern of tumor suppressor gene regulation by multiple miRNAs, the effect of miRNA antagomirs on the growth rate and viability of two human T-ALL cell lines, T-ALL1 and Koptk1, were assessed. The human T-ALL1 cell line expresses high levels of miR-19a, miR-19b, miR-26a and miR-92 but only low levels of other miRNAs, e.g. miR-148a and the randomly chosen miR-182 (FIG. 27b inset). […] Results in the Koptk1 cell line were analogous to those in the T-ALL1 cell line (FIG. 28).
(§2) FL5-12 murine pro B-lymphocytes, cell cycle and apoptosis studies and viral transductions were as described (Mavrakis, et al., 2008), (Plas, Talapatra, Edinger, Rathmell, & Thompson, 2001). T-ALL cell lines, including Jurkat, were cultured in RPMI 1640 medium supplemented with 10-20% fetal calf serum, 100 U/ml penicillin G and 100 μg/ml streptomycin at 37° C. in a humidified atmosphere under 5% CO2. All vectors are based on murine stem cell virus (MSCV) and include the miRNA expression vector encoding all miRNAs described (He, et al., 2005), NOTCH1-ICN (Pear, et al., 1996) and the individual shRNA vectors (protein knockdown by shRNAs; FIG. 10). The miRNA pooled library (He, et al., 2005) is a generous gift from G. J. Hannon and has been expanded by PCR cloning to contain ˜300 miRNAs. The antagomirs MZIP19a-PA-1, MZIP19b-PA-1, MZIP26a-PA-1, MZIP92a-PA-1, MZIP148a-PA-1, MZIP182-PA1, MZIP223-PA-1 and scrambled control (MZIP000-PA-1) were from System Biosciences.

The subject of a further series is PTEN and BCL2L11. The experiment in a line: Quantitative RT-PCR of BCL2L11 and PTEN mRNA in T-ALL1 cells. The series is classed as cell-based, human. From the text: (§3) Total RNA and miRNA-enriched RNA was extracted using the Allprep DNA/RNA/Protein and miRNeasy Mini kits. Pathological diagnosis was by expert hematopathologists at Weill Cornell Medical Center. cDNA synthesis, PCR and analysis by the ΔΔ Ct method were as described (Mavrakis, et al., 2008) and utilized Taqman Gene Expression Assays: Bcl2l11 (Mm00437796_m1), BCL2L11 (Hs00197982_m1), Pten (Mm01212532_m1), PTEN (Hs02621230_s1), Nf1 (Mm00812430_m1), NF1 (Hs01035104_m1), Ikzf1 (Mm01187878_m1), IKZF1 (Hs00172991_m1), Fbxw7 (Mm00504452_m1), FBXW7 (Hs00217794_m1), Phf6 (Mm00804415_m1), and Mouse GAPD (GAPDH) (4352932, Applied Biosystems). Expression was normalized to RNU6B (001093, Applied Biosystems).

The test system of series [2] is T-ALL1 cells. The experiment in a line: Cell number during in vitro culture of T-ALL1 cells expressing antagomirs. The series is classed as cell-based, human. The following applies: T-ALL1, 6 d culture. On the procedure: as §1, §2
Series [3] relates to PTEN, BCL2L11, PHF6, IKZF1, NF1, FBXW7. The experiment in a line: 3′UTR reporter, quantitative PCR and immunoblot assays of tumor suppressor genes in murine leukemias. The series is classed as cell-based. The following applies: murine T-ALLs expressing NOTCH1 and miRNA, mRNA, protein. Here is the method:
Immunoblots of whole cell lysates were performed as described (Wendel, et al., 2004). Antibodies were against Bim/Bcl2l11 (AAP-330, 1:1000, Assay Designs), Nf1 (sc67, 1:100, Santa Cruz), Cdc4/Fbxw7 (ab7405, 1:500, Abeam), Ikzf1 (sc-13039, 1:500, Santa Cruz), Phf6 (NB100-79861, 1:1000, Novus Biologicals), Pten (9559, 1:1000, Cell Signaling), tubulin (1:5000; Sigma, B-5-1-2) and actin (1:5000; Sigma, AC-15).
as §3
The mouse FBXW7 (bp 2793-4139; acc. no. NM_001177773), human NF1 (bp 10033-10666; acc. no NM_000267), human PHF6 (bp position 3271-4299; acc. no. NM_001015877) and Bim (bp. 3155-4773; acc. no. NM_009754) 3′UTR fragments were generated by PCR and cloned into the psi-CHECK-2 vector (Promega) with the exception of the IKZF1 3′UTR, which was purchased from Genecopoeia (cat no. HmiT000397b, by 2343-4471 of UTR). The assays were performed as described (Xiao, et al., 2008).
For orientation: A western blot detects proteins with antibodies after separation by electrophoresis.

Turning to `CN(C)C(=N)N=C(N)N` [metformin, reference compound], the “enrichment of cells co-expressing miR-19/GFP following IL3 depletion” value in the series on FL5-12 lymphocytes (treated with 1 μM metformin to activate AMP-kinase) was “Neither the other cDNAs nor metformin treatment abrogated miR-19's protective function”.

In the case of “TATTGCAATTGTCCCGGACTATCTTCCTGTCAGACAGGCCGGGACAAGTGCAATATTTTT (listed as DNA, chemistry not fully specified) [antagomir against miR-92, antagomir to miR92a, miRZIP from System Biosciences]”, the cell viability result in the series with T-ALL1 cells [1] is “significantly decrease cell viability”. The “expression of PTEN and BCL2L11” value with PTEN and BCL2L11 is “de-repress the tumor suppressor genes PTEN and BCL2L11”. For the same molecule, the growth rate entry in the series on T-ALL1 cells [2] is recorded as “reduce growth rate”.

For “TCAGTGCGCTACAGAACGTTATCTTCCTGTCAGACAAAGTTCTGTAGTGCACTGATTTTT (listed as DNA, chemistry not fully specified) [antagomir against miR-148a, antagomir to miR148, miRZIP from System Biosciences]”, the cell viability entry in the series with T-ALL1 cells [1] is reported as “no significant (p>0.05) effect”. Moreover, in the series with PTEN and BCL2L11, the “expression of PTEN and BCL2L11” value is listed as “no significant (p>0.05) effect”. Also, in the series on T-ALL1 cells [2], the growth rate result is listed as “no significant (p>0.05) effect”.

Consider “TTCAAGTGATCCAGGATCGGATCTTCCTGTCAGAGCCTATCCTGGATTACTTGAATTTTT (listed as DNA, chemistry not fully specified) [antagomir against miR-26a, antagomir to miR26a, miRZIP from System Biosciences]”, for which the cell viability entry in the series on T-ALL1 cells [1] is listed as “significantly decrease cell viability”. For the same molecule, the “expression of PTEN and BCL2L11” value in the series on PTEN and BCL2L11 was “de-repress the tumor suppressor genes PTEN and BCL2L11”. Further, the growth rate result with T-ALL1 cells [2] is reported as “reduce growth rate”.

Turning to “miR-20a: miRNA, UAAAGUGCUUAUAGUGCAGGUAG (SEQ ID NO: 3) (expressed or natural sequence; listed as Homo sapiens)”, the “regulation of tumor suppressor genes” value in series [3] is “reduce levels of PTEN and PHF6 protein and mRNA in leukemic cells”.

Take “miR-26: miRNA, UUCAAGUAAUCCAGGAUAGGCU (SEQ ID NO: 5) (expressed or natural sequence; listed as Homo sapiens)”: the “regulation of tumor suppressor genes” value in series [3] was “reduce levels of PTEN and PHF6 protein and mRNA in leukemic cells”. For the same molecule, the “IL-3 independence of FL5-12 cells” value in the series on FL5-12 lymphocytes is recorded as “confirmed to confer IL-3 independence on FL5-12 cells”.

On to “miR-92: miRNA, UAUUGCACUUGUCCCGGCCUGU (SEQ ID NO: 6) (expressed or natural sequence; listed as Homo sapiens)”, for which the “regulation of tumor suppressor genes” value in series [3] is “affects IKZF1 and FBWX7 but does not target the murine NF1”.

For “miR-223: miRNA, UGUCAGUUUGUCAAAUACCCCA (SEQ ID NO: 10) (expressed or natural sequence; listed as Homo sapiens)”, the “regulation of tumor suppressor genes” value in series [3] was “strongly regulates FBXW7 reporter activity and protein levels”. In the series on FL5-12 lymphocytes, the “IL-3 independence of FL5-12 cells” value is given as “confirmed to confer IL-3 independence on FL5-12 cells”.

B1: TTTGGCACTGGTAGAACTCCCAATCTTCCTGTCAGAGTGTGAGTTCTACCATTGCCAAATTTTT (nucleic acid)
antisense: TTTGGCACTGGTAGAACTCCCAATCTTCCTGTCAGAGTGTGAGTTCTACCATTGCCAAATTTTT
modifications: listed as DNA, chemistry not fully specified
notes: control antagomir to the randomly chosen miR-182
B1: the cell viability result with T-ALL1 cells [1] is “no significant (p>0.05) effect”. Also, in the series on PTEN and BCL2L11, the “expression of PTEN and BCL2L11” value is recorded as “no significant (p>0.05) effect”. For the same molecule, the growth rate entry in the series with T-ALL1 cells [2] is “no significant (p>0.05) effect”.
